Results taken from US20250382305A1 (PTC THERAPEUTICS, INC., priority 2022, published 2025).

Columns and labels:
[1] = tested on: Total ATXN3 (tATXN3) protein; assay: Endogenous Total ATXN3 (tATXN3) Protein Assay (MSD immunoassay of cell lysates); assay type: cell-based; conditions: average IC50, total ATXN3 protein in cell lysate after 48 h with compound (Table 1)
In short: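 Cells in DMEM/10% FBS were plated at 10,000 per well onto 7-point, 3.16-fold compound dilutions in duplicate for 48 h at 37° C, then lysed. Total ATXN3 in lysates was measured by MSD sandwich immunoassay: mouse anti-ATXN3 capture, rabbit anti-ATXN3 detection, SULFO-TAG anti-rabbit. Average IC50 was reported in star bins.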

[2] = tested on: ATXN3 pre-mRNA; assay: RT-qPCR Assay to Quantify Exon 4 Skipping in ATXN3 pre-mRNA in Cells; assay type: cell-based; conditions: percent exon 4 skipping in ATXN3 pre-mRNA, RT-qPCR of cell lysates; average IC50
In short: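 Cells plated at 10,000/well onto a 7-point, 3.16-fold DMSO dilution series (duplicates), incubated 24 h at 37 °C, then lysed. Exon 4 skipping measured by one-step RT-qPCR (48 °C RT, 40 cycles); IC50 interpolated from dose-response fit of percent skipping.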

Structure (SMILES)	IC50 [1] [µM]	IC50 [2] [µM]
N[C@H]1CC=CC[C@@H]1c1c(I)c2nc(Cl)nc(NCc3ccccc3)c2n1C(F)F [Compound 348, 6-((1S,6S)-6-aminocyclohex-3-en-1-yl)-N-benzyl-2-chloro-5-(difluoromethyl)-7-iodo-5H-pyrrolo[3,2-d]pyrimidin-4-amine]	0.03 to 0.3	0.03 to 0.3
CN(Cc1cccs1)c1cc(Cl)nc2c(C#CCCCO)c([C@H]3CC=CC[C@@H]3N)sc12 [Compound 349, 5-(2-((1S,6S)-6-aminocyclohex-3-en-1-yl)-5-chloro-7-(methyl(thiophen-2-ylmethyl)amino)thieno[3,2-b]pyridin-3-yl)pent-4-yn-1-ol]	0.03 to 0.3	0.03 to 0.3
Cn1c([C@H]2CCOC[C@@H]2N)c(Br)c2nc(Cl)cc(NCc3cccs3)c21 [Compound 351, 2-((3R,4S)-3-aminotetrahydro-2H-pyran-4-yl)-3-bromo-5-chloro-1-methyl-N-(thiophen-2-ylmethyl)-1H-pyrrolo[3,2-b]pyridin-7-amine]	0.03 to 0.3	0.03 to 0.3
N[C@H]1CC=CC[C@@H]1c1c(I)c2nc(Cl)cc(NCc3ccccc3)c2n1C(F)F [Compound 352, 2-((1S,6S)-6-aminocyclohex-3-en-1-yl)-N-benzyl-5-chloro-1-(difluoromethyl)-3-iodo-1H-pyrrolo[3,2-b]pyridin-7-amine]	0.03 to 0.3	0.03 to 0.3
Cc1c([C@H]2CC=C(C(=O)Nc3ccccc3)C[C@@H]2N)sc2c(NCc3cccs3)cc(Cl)nc12 [Compound 353, (4S,5S)-5-amino-4-(5-chloro-3-methyl-7-((thiophen-2-ylmethyl)amino)thieno[3,2-b]pyridin-2-yl)-N-phenylcyclohex-1-ene-1-carboxamide]	0.03 to 0.3	0.03 to 0.3
N[C@@H]1CCC[C@@H](O)[C@H]1c1sc2c(NCc3cccs3)cc(Cl)nc2c1Br [Compound 355, (1R,2S,3R)-3-amino-2-(3-bromo-5-chloro-7-((thiophen-2-ylmethyl)amino)thieno[3,2-b]pyridin-2-yl)cyclohexan-1-ol]	0.03 to 0.3	0.03 to 0.3
C#Cc1c([C@H]2CCCC[C@@H]2N)sc2c(NCc3ccco3)cc(Cl)nc12 [Compound 357, 2-((1S,2S)-2-aminocyclohexyl)-5-chloro-3-ethynyl-N-(furan-2-ylmethyl)thieno[3,2-b]pyridin-7-amine]	0.03 to 0.3	0.03 to 0.3
N[C@H]1CCCC[C@@H]1c1sc2c(NCC3=CCCC3)cc(Cl)nc2c1Br [Compound 361, 2-((1S,2S)-2-aminocyclohexyl)-3-bromo-5-chloro-N-(cyclopent-1-en-1-ylmethyl)thieno[3,2-b]pyridin-7-amine]	0.03 to 0.3	0.03 to 0.3
N[C@@H]1CC=CC[C@H]1c1sc2c(NCc3cccs3)nc(Cl)nc2c1I [Compound 362, 6-((1R,6R)-6-aminocyclohex-3-en-1-yl)-2-chloro-7-iodo-N-(thiophen-2-ylmethyl)thieno[3,2-d]pyrimidin-4-amine]	0.03 to 0.3	0.03 to 0.3
CC#CCNc1cc(Cl)nc2c(C)c([C@H]3CCCC[C@@H]3N)sc12 [Compound 363, 2-((1S,2S)-2-aminocyclohexyl)-N-(but-2-yn-1-yl)-5-chloro-3-methylthieno[3,2-b]pyridin-7-amine]	0.03 to 0.3	0.03 to 0.3
N[C@H]1COCC[C@@H]1c1sc2c(NCc3ccncc3)cc(Cl)nc2c1Br [Compound 364, 2-((3R,4S)-3-aminotetrahydro-2H-pyran-4-yl)-3-bromo-5-chloro-N-(pyridin-4-ylmethyl)thieno[3,2-b]pyridin-7-amine]	0.03 to 0.3	0.03 to 0.3
COC(=O)CNc1cc(Cl)nc2c(Br)c([C@H]3CC=CC[C@@H]3N)sc12 [Compound 366, methyl (2-((1S,6S)-6-aminocyclohex-3-en-1-yl)-3-bromo-5-chlorothieno[3,2-b]pyridin-7-yl)glycinate]	0.03 to 0.3	0.03 to 0.3
N[C@@H]1CCCC[C@H]1c1sc2c(NCc3ccccc3)cc(Cl)nc2c1Cl [Compound 368, 2-((1R,2R)-2-aminocyclohexyl)-N-benzyl-3,5-dichlorothieno[3,2-b]pyridin-7-amine]	0.03 to 0.3	0.03 to 0.3
[2H]C1=C([2H])C([2H])([2H])[C@@H](c2sc3c(NCc4ccco4)cc(Cl)nc3c2Cl)[C@H](N)C1([2H])[2H] [Compound 369, 2-((1R,6R)-6-aminocyclohex-3-en-1-yl-2,2,3,4,5,5-d6)-3,5-dichloro-N-(furan-2-ylmethyl)thieno[3,2-b]pyridin-7-amine]	0.03 to 0.3	0.03 to 0.3
N[C@@H]1CC=CC[C@H]1c1sc2c(NCc3ccncc3)cc(Cl)nc2c1Br [Compound 373, 2-((1R,6R)-6-aminocyclohex-3-en-1-yl)-3-bromo-5-chloro-N-(pyridin-4-ylmethyl)thieno[3,2-b]pyridin-7-amine]	0.03 to 0.3	0.03 to 0.3
N[C@@H]1CC=CC[C@H]1c1sc2c(NCc3ccncc3F)cc(Cl)nc2c1Cl [Compound 376, 2-((1R,6R)-6-aminocyclohex-3-en-1-yl)-3,5-dichloro-N-((3-fluoropyridin-4-yl)methyl)thieno[3,2-b]pyridin-7-amine]	0.03 to 0.3	0.03 to 0.3
N[C@H]1CC=C[C@@H](O)[C@@H]1c1sc2c(NCc3cccs3)cc(Cl)nc2c1Cl [Compound 377, (1R,5S,6R)-5-amino-6-(3,5-dichloro-7-((thiophen-2-ylmethyl)amino)thieno[3,2-b]pyridin-2-yl)cyclohex-2-en-1-ol]	0.03 to 0.3	0.03 to 0.3
C/C=C/CNc1cc(Cl)nc2c(C)c([C@H]3CC=CC[C@@H]3N)sc12 [Compound 378, 2-((1S,6S)-6-aminocyclohex-3-en-1-yl)-N-((E)-but-2-en-1-yl)-5-chloro-3-methylthieno[3,2-b]pyridin-7-amine]	0.03 to 0.3	0.03 to 0.3
N[C@@H]1CC=CC[C@H]1c1c(I)c2nc(Cl)nc(NCc3ccco3)c2n1C(F)F [Compound 379, 6-((1R,6R)-6-aminocyclohex-3-en-1-yl)-2-chloro-5-(difluoromethyl)-N-(furan-2-ylmethyl)-7-iodo-5H-pyrrolo[3,2-d]pyrimidin-4-amine]	0.03 to 0.3	0.03 to 0.3
N[C@@H]1CC=CC[C@H]1c1sc2c(NCc3nccs3)cc(Cl)nc2c1Cl [Compound 380, 2-((1R,6R)-6-aminocyclohex-3-en-1-yl)-3,5-dichloro-N-(thiazol-2-ylmethyl)thieno[3,2-b]pyridin-7-amine]	0.03 to 0.3	0.03 to 0.3

Now from value to compound:

IC50 [1] [µM]	IC50 [2] [µM]	Structure (SMILES)
0.03 to 0.3	0.03 to 0.3	N[C@@H]1CC=CC[C@H]1c1sc2c(NCc3ccco3)cc(Cl)nc2c1I [Compound 327, 2-((1R,6R)-6-aminocyclohex-3-en-1-yl)-5-chloro-N-(furan-2-ylmethyl)-3-iodothieno[3,2-b]pyridin-7-amine]
0.03 to 0.3	0.03 to 0.3	CC#Cc1c([C@H]2CCCC[C@@H]2N)n(C(F)F)c2c(NCc3ccco3)nc(Cl)nc12 [Compound 331, 6-((1S,2S)-2-aminocyclohexyl)-2-chloro-5-(difluoromethyl)-N-(furan-2-ylmethyl)-7-(prop-1-yn-1-yl)-5H-pyrrolo[3,2-d]pyrimidin-4-amine]
0.03 to 0.3	0.03 to 0.3	CN(Cc1ccco1)c1cc(Cl)nc2c(C#CCCCO)c([C@H]3CC=CC[C@@H]3N)sc12 [Compound 336, 5-(2-((1S,6S)-6-aminocyclohex-3-en-1-yl)-5-chloro-7-((furan-2-ylmethyl)(methyl)amino)thieno[3,2-b]pyridin-3-yl)pent-4-yn-1-ol]
0.03 to 0.3	0.03 to 0.3	N[C@H]1COCC[C@@H]1c1sc2c(NCc3nccs3)cc(Cl)nc2c1Cl [Compound 337, 2-((3R,4S)-3-aminotetrahydro-2H-pyran-4-yl)-3,5-dichloro-N-(thiazol-2-ylmethyl)thieno[3,2-b]pyridin-7-amine]
0.03 to 0.3	0.03 to 0.3	Cc1c([C@@H]2[C@@H](N)CCCC2(F)F)sc2c(NCc3cccs3)cc(Cl)nc12 [Compound 338, 2-((1R,6S)-6-amino-2,2-difluorocyclohexyl)-5-chloro-3-methyl-N-(thiophen-2-ylmethyl)thieno[3,2-b]pyridin-7-amine]
0.03 to 0.3	0.03 to 0.3	N[C@H]1CC=CC[C@@H]1c1sc2c(NCc3nccs3)nc(Cl)nc2c1Cl [Compound 340, 6-((1S,6S)-6-aminocyclohex-3-en-1-yl)-2,7-dichloro-N-(thiazol-2-ylmethyl)thieno[3,2-d]pyrimidin-4-amine]
0.03 to 0.3	0.03 to 0.3	Cc1c([C@H]2CC=CC[C@@H]2N)sc2c(NCc3ccccc3F)cc(Cl)nc12 [Compound 341, 2-((1S,6S)-6-aminocyclohex-3-en-1-yl)-5-chloro-N-(2-fluorobenzyl)-3-methylthieno[3,2-b]pyridin-7-amine]
0.03 to 0.3	0.03 to 0.3	CC#CCNc1cc(Cl)nc2c(Br)c([C@H]3OCCC[C@@H]3N)sc12 [Compound 343, 2-((2S,3S)-3-aminotetrahydro-2H-pyran-2-yl)-3-bromo-N-(but-2-yn-1-yl)-5-chlorothieno[3,2-b]pyridin-7-amine]
0.03 to 0.3	0.03 to 0.3	C#Cc1c([C@@H]2CCCC[C@H]2N)sc2c(NCc3ccccc3)cc(Cl)nc12 [Compound 344, 2-((1R,2R)-2-aminocyclohexyl)-N-benzyl-5-chloro-3-ethynylthieno[3,2-b]pyridin-7-amine]
0.03 to 0.3	0.03 to 0.3	N[C@@H]1CC=CC[C@H]1c1sc2c(NCc3ccccc3)cc(Cl)nc2c1I [Compound 345, 2-((1R,6R)-6-aminocyclohex-3-en-1-yl)-N-benzyl-5-chloro-3-iodothieno[3,2-b]pyridin-7-amine]
